Source: patent US10358434B2, “2-(3-pyridinyl)-1H-benzimidazole derivative compound and medicament containing same” (NIHON MEDI-PHYSICS CO., LTD., priority 2014, dated 2019)

What was measured:
[1] = In vivo kinetics experiment (radioactivity distribution); design: species or system Wistar male rat; conditions: rat; for Adrenal gland/blood ratio of radioactivity accumulation / Adrenal gland/fat ratio of radioactivity accumulation / Adrenal gland/kidney ratio of radioactivity accumulation / Adrenal gland/liver ratio of radioactivity accumulation / Adrenal gland/muscle ratio of radioactivity accumulation / Adrenal gland/small intestine ratio of radioactivity accumulation / Radioactivity distribution Adrenal gland / Radioactivity distribution Bladder (including urine) / Radioactivity distribution Blood / Radioactivity distribution Fat / Radioactivity distribution Femur / Radioactivity distribution Heart / Radioactivity distribution Kidney / Radioactivity distribution Large intestine / Radioactivity distribution Liver / Radioactivity distribution Lung / Radioactivity distribution Muscle (lower limbs) / Radioactivity distribution Remaining whole body / Radioactivity distribution Small intestine / Radioactivity distribution Spleen / Radioactivity distribution Stomach / Radioactivity distribution Testis / Radioactivity distribution Whole brain: caudal vein
Protocol: Each of Compounds [^18F] 100, [^18F] 200, [^123I] 400, [^18F] 500, and [^123I] 601 to 610 obtained by the methods described in Examples 2, 4, 7, 9, 11, 13, 15, 17, 19, 21, 23, 25, 27, and 29, or [^123I] IMTO, was diluted with a physiological saline containing 1 w/v % ascorbic acid to prepare a solution to be administered. The above described compound (approximately 1 to 3.7 MBq) was injected into the caudal vein of a Wistar male rat (9 weeks old) under anesthesia with a mixed gas of isoflurane/air, and ten minutes after the injection, the rat was sacrificed by exsanguination. From the thus sacrificed rat, blood and organs (heart, lung, stomach, liver, spleen, small intestine, large intestine, kidney, bladder (including urine), muscle (lower limbs), brain, adrenal gland, testis, fat, femur, or thyroid gland) were excised, and the weights thereof were then measured. Thereafter, radioactivity was measured in the blood, the individual excised organs, and the remaining whole body. Further, 30 and 60 minutes after the administration, the same operations as those described above were carried out. […] The symbol “n” in Tables 9 to 23 indicates the number of rats used. In addition, Tables 9 to 23 also show the ratio of radioactivity accumulation in adrenal grand (% ID/g) to radioactivity accumulation in each of blood, liver, kidney, small intestine, muscle and fat (% ID/g).

[2] = Plasma stability evaluation (TLC analysis); assay type: in vitro ADME; conditions: 37° C., 60 minutes
Protocol: Evaluation was made using a heparin-treated normal human plasma pool (Kohjin Bio Co., Ltd.). Compounds [^18F] 100, [^18F] 200, [^123I] 400, [^18F] 500, and [^123I] 601 to 610 obtained by the methods shown in Examples 2, 4, 7, 9, 11, 13, 15, 17, 19, 21, 23, 25, 27, and 29 were each added to the aforementioned human plasma (5 mL), and the obtained mixture was then incubated at 37° C. for 60 minutes. Thereafter, the mixture was centrifuged with addition of methanol, so that a deproteinization treatment was carried out. Thereafter, stability was evaluated by TLC analysis. As TLC analysis conditions, the TLC analysis conditions applied upon the above described synthesis of each compound were applied.

[3] = system: human adrenal gland section expressing aldosterone-producing adenoma; assay: In vitro autoradiography using human adrenal adenoma; assay type: binding
Excerpt: From adrenal gland excised from a human patient for treatment of primary aldosteronism, a portion containing aldosterone-producing adenoma was removed and was then frozen. The frozen adrenal gland was embedded in an embedding agent for production of a frozen tissue section (Tissue-Tek O.C.T. Compound, Sakura Finetek Japan). Using a freezing microtome (CM3050S, Leica Microsystems), a 7-μm thin slice section, which is schematically shown in FIGS. 17(a) and 17(b), was produced, and was preserved at −20° C. before use. In FIGS. 17, 71a and 71b indicate aldosterone-producing adenomas, 72a and 72b indicate normal adrenal cortexes, and 73a and 73b indicate normal adrenal medullas. A 5-33 kBq/mL solution was prepared by adding a suitable amount of each of Compounds [^18F] 100, [^18F] 200, [^123I] 400, [^18F] 500, and [^123I] 601 to [^123I] 610, which were obtained by the methods described in Examples 2, 4, 7, 9, 11, 13, 15, 17, 19, 21, 23, 25, 27, and 29, or [^123I] IMTO to a phosphate-buffered physiological saline containing 1 w/v % bovine serum albumin (not containing fatty acid). The radioactivity concentration was measured using an autowell gamma system (ARC-7001, manufactured by Hitachi Aloka Medical, Ltd.). The section was immersed in the obtained sample solution for 10 minutes. For Compounds [^18F] 100, [^18F] 200, [^123I] 400, [^18F] 500, [^123I] 601 and [^123I] 602, the section shown in FIG. 17(a) was used, and for Compounds […] [^123I] IMTO, both sections shown in FIGS. 17(a) and (b) were used. Each sample solution was washed off, and the section was then exposed to an imaging plate (BAS-SR2040, manufactured by FUJIFILM Holdings Corporation) (IP) for 16-20 hours, and thereafter, an autoradiogram was obtained using a fluoro-image analyzer (FLA-7000, manufactured by FUJIFILM Holdings Corporation).
In order to quantitatively compare differences between images caused by ^123I and ^18F nuclides, a correction was made by calculating accumulation of radioactivity within the range of a region of interest (ROI) by means of integral calculation based on half-life, added radioactivity and IP contact time.
610. FIG. 18(b), FIG. 19(b), FIG. 20(b), FIG. 21(b), FIG. 22(a), FIG. 23(a), FIG. 24(a), FIG. 25(a), FIG. 26(a), FIG. 27(a), FIG. 28(a), FIG. 29(a), FIG. 30(a), and FIG. 31(a) each show an autoradiogram of [^123I] IMTO. […] 100, [^18F] 200, [^123I] 400, [^18F] 500, and [^123I] 601 to [^123I] […] The ROI having the same area as each other was established in a normal site and in a site in which aldosterone-producing adenoma had developed. Then, the PSL value (B1) indicating accumulation of radioactivity in the sites of normal adrenal cortexes 72a and 72b was compared with the PSL value (B2) indicating accumulation of radioactivity in the sites of aldosterone-producing adenomas 71a and 71b. In Table 7, the B1, B2 and B2/B1 values of [^18F] 100 indicate the mean values for the number of tests (n), respectively.

Fc1cc2nc(-c3cncc(Cn4ccnc4)c3)n(CC[18F])c2cc1Br [[^18F] 200, 6-Bromo-5-fluoro-1-(2-[^18F]fluoroethyl)-2-[5-(imidazol-1-ylmethyl)pyridin-3-yl]benzimidazole]
accumulation of radioactivity in adrenal gland vs blood and peripheral tissues ([1]; Tables 9 to 22): high accumulation of radioactivity in adrenal gland was observed, in comparison to in blood and peripheral tissues
Adrenal gland/blood ratio of radioactivity accumulation ([1]; 10 min after administration): 100.87 ± 36.73
Adrenal gland/fat ratio of radioactivity accumulation ([1]; 10 min after administration): 174.42 ± 63.32
Adrenal gland/kidney ratio of radioactivity accumulation ([1]; 10 min after administration): 11.40 ± 5.81
Adrenal gland/liver ratio of radioactivity accumulation ([1]; 10 min after administration): 2.68 ± 1.01
Adrenal gland/muscle ratio of radioactivity accumulation ([1]; 10 min after administration): 88.35 ± 26.16
Adrenal gland/small intestine ratio of radioactivity accumulation ([1]; 10 min after administration): 13.32 ± 3.08
Radioactivity distribution Adrenal gland ([1]; 10 min after administration): 14.35 ± 4.09 % ID/g
Radioactivity distribution Bladder (including urine) ([1]; 10 min after administration): 1.28 ± 0.11 % ID/g
Radioactivity distribution Blood ([1]; 10 min after administration): 0.15 ± 0.01 % ID/g
Radioactivity distribution Fat ([1]; 10 min after administration): 0.08 ± 0.02 % ID/g
Radioactivity distribution Femur ([1]; 10 min after administration): 0.38 ± 0.03 % ID/g
Radioactivity distribution Heart ([1]; 10 min after administration): 0.32 ± 0.03 % ID/g
Radioactivity distribution Kidney ([1]; 10 min after administration): 1.39 ± 0.39 % ID/g
Radioactivity distribution Large intestine ([1]; 10 min after administration): 0.16 ± 0.01 % ID/g
Radioactivity distribution Liver ([1]; 10 min after administration): 5.54 ± 0.78 % ID/g
Radioactivity distribution Lung ([1]; 10 min after administration): 0.54 ± 0.07 % ID/g
Radioactivity distribution Muscle (lower limbs) ([1]; 10 min after administration): 0.16 ± 0.00 % ID/g
Radioactivity distribution Remaining whole body ([1]; 10 min after administration): 0.15 ± 0.00 % ID/g
Radioactivity distribution Small intestine ([1]; 10 min after administration): 1.07 ± 0.07 % ID/g
Radioactivity distribution Spleen ([1]; 10 min after administration): 1.49 ± 0.32 % ID/g
Radioactivity distribution Stomach ([1]; 10 min after administration): 0.36 ± 0.04 % ID/g
Radioactivity distribution Testis ([1]; 10 min after administration): 0.04 ± 0.00 % ID/g
Radioactivity distribution Whole brain ([1]; 10 min after administration): 0.02 ± 0.00 % ID/g
Adrenal gland/blood ratio of radioactivity accumulation ([1]; 30 min after administration): 145.45 ± 14.69
Adrenal gland/fat ratio of radioactivity accumulation ([1]; 30 min after administration): 425.84 ± 103.54
Adrenal gland/kidney ratio of radioactivity accumulation ([1]; 30 min after administration): 17.00 ± 1.67
Adrenal gland/liver ratio of radioactivity accumulation ([1]; 30 min after administration): 5.06 ± 0.59
Adrenal gland/muscle ratio of radioactivity accumulation ([1]; 30 min after administration): 158.65 ± 18.59
Adrenal gland/small intestine ratio of radioactivity accumulation ([1]; 30 min after administration): 8.44 ± 1.36
Radioactivity distribution Adrenal gland ([1]; 30 min after administration): 22.61 ± 2.12 % ID/g
Radioactivity distribution Bladder (including urine) ([1]; 30 min after administration): 2.82 ± 1.27 % ID/g
Radioactivity distribution Blood ([1]; 30 min after administration): 0.16 ± 0.00 % ID/g
Radioactivity distribution Fat ([1]; 30 min after administration): 0.06 ± 0.02 % ID/g
Radioactivity distribution Femur ([1]; 30 min after administration): 0.40 ± 0.10 % ID/g
Radioactivity distribution Heart ([1]; 30 min after administration): 0.33 ± 0.02 % ID/g
Radioactivity distribution Kidney ([1]; 30 min after administration): 1.33 ± 0.03 % ID/g
Radioactivity distribution Large intestine ([1]; 30 min after administration): 0.27 ± 0.04 % ID/g
Radioactivity distribution Liver ([1]; 30 min after administration): 4.48 ± 0.13 % ID/g
Radioactivity distribution Lung ([1]; 30 min after administration): 0.48 ± 0.04 % ID/g
Radioactivity distribution Muscle (lower limbs) ([1]; 30 min after administration): 0.14 ± 0.01 % ID/g
Radioactivity distribution Remaining whole body ([1]; 30 min after administration): 0.13 ± 0.02 % ID/g
Radioactivity distribution Small intestine ([1]; 30 min after administration): 2.70 ± 0.21 % ID/g
Radioactivity distribution Spleen ([1]; 30 min after administration): 1.09 ± 0.25 % ID/g
Radioactivity distribution Stomach ([1]; 30 min after administration): 0.56 ± 0.06 % ID/g
Radioactivity distribution Testis ([1]; 30 min after administration): 0.05 ± 0.04 % ID/g
Radioactivity distribution Whole brain ([1]; 30 min after administration): 0.01 ± 0.00 % ID/g
Adrenal gland/blood ratio of radioactivity accumulation ([1]; 60 min after administration): 168.33 ± 36.80
Adrenal gland/fat ratio of radioactivity accumulation ([1]; 60 min after administration): 417.70 ± 25.29
Adrenal gland/kidney ratio of radioactivity accumulation ([1]; 60 min after administration): 18.05 ± 3.00
Adrenal gland/liver ratio of radioactivity accumulation ([1]; 60 min after administration): 6.87 ± 1.26
Adrenal gland/muscle ratio of radioactivity accumulation ([1]; 60 min after administration): 180.41 ± 24.02
Adrenal gland/small intestine ratio of radioactivity accumulation ([1]; 60 min after administration): 5.43 ± 1.42
Radioactivity distribution Adrenal gland ([1]; 60 min after administration): 21.73 ± 3.25 % ID/g
Radioactivity distribution Bladder (including urine) ([1]; 60 min after administration): 5.83 ± 2.21 % ID/g
Radioactivity distribution Blood ([1]; 60 min after administration): 0.13 ± 0.01 % ID/g
Radioactivity distribution Fat ([1]; 60 min after administration): 0.05 ± 0.00 % ID/g
Radioactivity distribution Femur ([1]; 60 min after administration): 0.28 ± 0.00 % ID/g
Radioactivity distribution Heart ([1]; 60 min after administration): 0.27 ± 0.02 % ID/g
Radioactivity distribution Kidney ([1]; 60 min after administration): 1.21 ± 0.04 % ID/g
Radioactivity distribution Large intestine ([1]; 60 min after administration): 0.41 ± 0.06 % ID/g
Radioactivity distribution Liver ([1]; 60 min after administration): 3.18 ± 0.23 % ID/g
Radioactivity distribution Lung ([1]; 60 min after administration): 0.39 ± 0.09 % ID/g
Radioactivity distribution Muscle (lower limbs) ([1]; 60 min after administration): 0.12 ± 0.00 % ID/g
Radioactivity distribution Remaining whole body ([1]; 60 min after administration): 0.12 ± 0.00 % ID/g
Radioactivity distribution Small intestine ([1]; 60 min after administration): 4.13 ± 0.83 % ID/g
Radioactivity distribution Spleen ([1]; 60 min after administration): 0.68 ± 0.05 % ID/g
Radioactivity distribution Stomach ([1]; 60 min after administration): 0.65 ± 0.16 % ID/g
Radioactivity distribution Testis ([1]; 60 min after administration): 0.09 ± 0.00 % ID/g
Radioactivity distribution Whole brain ([1]; 60 min after administration): 0.01 ± 0.00 % ID/g
stability in human plasma [2]: hardly metabolized and decomposed in the plasma
Radiochemical purity after incubation in human plasma ([2]; TLC analysis): 92%
accumulation of radioactivity in adrenal gland section (autoradiogram) ([3]; FIGS. 18 to 31): accumulation of radioactivity was selectively observed in a region in which aldosterone-producing adenoma had been pathologically observed
B2/B1 accumulation ratio ([3]; section of FIG. 17(a)): 3.34
B2 (PSL value, aldosterone-producing adenoma) ([3]; section of FIG. 17(a), site 71a): 4409
B1 (PSL value, normal adrenal cortex) ([3]; section of FIG. 17(a), site 72a): 1321
